In publication PMC4864329, “In vitro and in vivo efficacy, toxicity, bio-distribution and resistance selection of a novel antibacterial drug candidate” (Scientific Reports, 2016):
Values joined by “and” are separate entries in the source; they are usually repeats but may differ in a detail not shown here. Equal values may be shown once. Read-outs that look alike come from different tables or passages of the source.

Tested on: Klebsiella pneumoniae clinical isolates
Format: cell-based
Procedure: Minimum inhibitory concentrations (MICs) of SET-M33L were determined against 76 clinical isolates of Pseudomonas aeruginosa and 73 clinical isolates of Klebsiella pneumoniae. The isolates were selected on the basis of their resistance phenotypes and major antibiotic resistance determinants, including resistance to colistin and carriage of carbapenemase-encoding genes (Table 1 and supplemental Tables S1 and S2).
MIC values were determined against a large collection of clinical isolates. Most isolates were collected during routine susceptibility testing procedures at the Clinical Microbiology Unit of Careggi University Hospital in Florence, while specific isolates were selected according to their phenotype or genotype (e.g. carriage of carbapenemase-encoding genes, inclusion in epidemic bacterial clones, resistance to colistin) from a collection of isolates already available at Department of Medical Biotechnologies, University of Siena. Detailed features of each strain, including relevant resistance phenotypes and genotypes were reported in supplemental Tables S1 and S2. MICs were determined in triplicate using a standard microdilution assay according to the guidelines of the Clinical and Laboratory Standards Institute[34]. SET-M33L was assayed using concentrations in the range 0.09–11.2 μM (0.5–64 μg/mL); testing was performed using a bacterial inoculum of 5 × 10^4 CFU/well prepared in cation-supplemented Mueller-Hinton broth (MHB) (Becton Dickinson, Franklin Lakes, NJ, USA) in a final volume of 100 μl. Results were recorded after 18–20 h of incubation at 35 °C.

With colistin sulfate the MIC (isolate SI_K1, CARB, β/I, ESC, FQ, AG, COL, blaNDM) was 32 µg/mL, the MIC (isolate SI_K2, CARB, ESC, FQ, AG, blaCTX-M) was ≤ 0.5 µg/mL and the MIC (isolate SI_K3, CARB, β/I, ESC, AG, blaVIM) was 0.5 µg/mL. It also gave an MIC (isolate SI_K4, CARB, β/I, ESC, FQ, blaOXA-48) of 0.5 µg/mL, an MIC (isolate SI_K5, CARB, β/I, ESC, FQ, blaOXA-48) of 0.5 µg/mL and an MIC (isolate SI_K6, CARB, β/I, ESC, FQ, AG, blaKPC) of 0.5 µg/mL. The MIC (isolate SI_K7, CARB, β/I, ESC, FQ, blaKPC) was 0.5 µg/mL, the MIC (isolate SI_K8, CARB, β/I, ESC, FQ, AG, blaKPC) was ≤ 0.5 µg/mL and the MIC (isolate SI_K9, CARB, β/I, ESC, FQ, AG, blaKPC) was 2 µg/mL. The MIC (isolate SI_K10, CARB, β/I, ESC, FQ, COL, blaKPC) was > 32 µg/mL, the MIC (isolate SI_K11, CARB, β/I, ESC, FQ, AG, blaKPC) was ≤ 0.5 µg/mL and the MIC (isolate SI_K12, phenotype none) was ≤ 0.5 µg/mL. The MIC (isolate SI_K13, β/I, ESC, FQ, AG, ESBL) was ≤ 0.5 µg/mL, the MIC (isolate SI_K14, phenotype none) was ≤ 0.5 µg/mL and the MIC (isolate SI_K15, phenotype none) was ≤ 0.5 µg/mL. The MIC (isolate SI_K16, phenotype none) was ≤ 0.5 µg/mL, the MIC (isolate SI_K17, CARB, β/I, ESC, FQ, AG, COL, blaKPC) was > 32 µg/mL and the MIC (isolate SI_K18, phenotype none) was ≤ 0.5 µg/mL. For the same substance, the MIC (isolate SI_K19, ESC, ESBL) was ≤ 0.5 µg/mL, the MIC (isolate SI_K20, phenotype none) was ≤ 0.5 µg/mL and the MIC (isolate SI_K21, phenotype none) was ≤ 0.5 µg/mL. The MIC (isolate SI_K22, phenotype none) was ≤ 0.5 µg/mL, the MIC (isolate SI_K23, phenotype none) was ≤ 0.5 µg/mL and the MIC (isolate SI_K24, phenotype none) was ≤ 0.5 µg/mL. The MIC (isolate SI_K25, phenotype none) was ≤ 0.5 µg/mL, the MIC (isolate SI_K26, phenotype none) was ≤ 0.5 µg/mL and the MIC (isolate SI_K27, phenotype none) was ≤ 0.5 µg/mL. The MIC (isolate SI_K28, β/I, ESC, FQ, AG, ESBL) was ≤ 0.5 µg/mL, the MIC (isolate SI_K29, ESC, AG, blaCTX-M) was 0.5 µg/mL and the MIC (isolate SI_K30, phenotype none) was ≤ 0.5 µg/mL. For the same substance, the MIC (isolate SI_K31, β/I, ESC, FQ, AG, COL, ESBL) was 16 µg/mL, the MIC (isolate SI_K32, phenotype none) was ≤ 0.5 µg/mL and the MIC (isolate SI_K33, phenotype none) was ≤ 0.5 µg/mL. The MIC (isolate SI_K34, phenotype none) was ≤ 0.5 µg/mL, the MIC (isolate SI_K35, CARB, β/I, ESC, FQ, AG, blaKPC) was ≤ 0.5 µg/mL and the MIC (isolate SI_K36, CARB, β/I, ESC, FQ, AG, COL, blaKPC) was > 32 µg/mL. For the same substance, the MIC (isolate SI_K37, phenotype none) was ≤ 0.5 µg/mL, the MIC (isolate SI_K38, phenotype none) was ≤ 0.5 µg/mL and the MIC (isolate SI_K39, phenotype none) was ≤ 0.5 µg/mL. For the same substance, the MIC (isolate SI_K40, CARB, β/I, ESC, FQ, AG, COL, blaKPC) was > 32 μg/mL and > 24 μM, the MIC (isolate SI_K41, β/I, ESC, FQ, AG, ESBL) was ≤ 0.5 μg/mL and ≤ 0.4 μM and the MIC (isolate SI_K42, phenotype none) was ≤ 0.5 μg/mL and ≤ 0.4 μM. The MIC (isolate SI_K43, phenotype none) was ≤ 0.5 μg/mL and ≤ 0.4 μM, the MIC (isolate SI_K44, phenotype none) was ≤ 0.4 μM and ≤ 0.5 μg/mL and the MIC (isolate SI_K45, FQ) was ≤ 0.5 μg/mL and ≤ 0.4 μM. The MIC (isolate SI_K46, β/I) was ≤ 0.5 μg/mL and ≤ 0.4 μM, the MIC (isolate SI_K47, phenotype none) was ≤ 0.5 μg/mL and ≤ 0.4 μM and the MIC (isolate SI_K48, phenotype none) was ≤ 0.5 μg/mL and ≤ 0.4 μM. The MIC (isolate SI_K49, phenotype none) was ≤ 0.5 μg/mL and ≤ 0.4 μM, the MIC (isolate SI_K50, phenotype none) was ≤ 0.5 μg/mL and ≤ 0.4 μM and the MIC (isolate SI_K51, phenotype none) was ≤ 0.5 μg/mL and ≤ 0.4 μM. The MIC (isolate SI_K52, phenotype none) was ≤ 0.5 μg/mL and ≤ 0.4 μM, the MIC (isolate SI_K53, β/I, ESC, FQ, ESBL) was ≤ 0.5 μg/mL and ≤ 0.4 μM and the MIC (isolate SI_K54, phenotype none) was ≤ 0.5 μg/mL and ≤ 0.4 μM. For the same substance, the MIC (isolate SI_K55, β/I, ESC, FQ, AG, ESBL) was ≤ 0.5 μg/mL and ≤ 0.4 μM, the MIC (isolate SI_K56, phenotype none) was ≤ 0.5 μg/mL and ≤ 0.4 μM and the MIC (isolate SI_K57, β/I, FQ) was ≤ 0.5 μg/mL and ≤ 0.4 μM. For the same substance, the MIC (isolate SI_K58, phenotype none) was ≤ 0.5 μg/mL and ≤ 0.4 μM, the MIC (isolate SI_K59, phenotype none) was ≤ 0.5 μg/mL and ≤ 0.4 μM and the MIC (isolate SI_K60, phenotype none) was ≤ 0.5 μg/mL and ≤ 0.4 μM. The MIC (isolate SI_K61, CARB, β/I, ESC, FQ) was ≤ 0.5 μg/mL and ≤ 0.4 μM, the MIC (isolate SI_K62, CARB, β/I, ESC, FQ, AG, ESBL) was ≤ 0.5 μg/mL and ≤ 0.4 μM and the MIC (isolate SI_K63, β/I, ESC, FQ, AG, ESBL) was ≤ 0.5 μg/mL and ≤ 0.4 μM. The MIC (isolate SI_K64, phenotype none) was ≤ 0.5 μg/mL and ≤ 0.4 μM, the MIC (isolate SI_K65, phenotype none) was ≤ 0.5 μg/mL and ≤ 0.4 μM and the MIC (isolate SI_K66, β/I, ESC, FQ, AG, ESBL) was ≤ 0.5 μg/mL and ≤ 0.4 μM. The MIC (isolate SI_K67, β/I, ESC, FQ, AG, ESBL) was ≤ 0.5 μg/mL and ≤ 0.4 μM, the MIC (isolate SI_K68, phenotype none) was ≤ 0.5 μg/mL and ≤ 0.4 μM and the MIC (isolate SI_K69, β/I, ESC, FQ, AG, ESBL) was ≤ 0.5 μg/mL and ≤ 0.4 μM. For the same substance, the MIC (isolate SI_K70, β/I, ESC, FQ) was ≤ 0.5 μg/mL and ≤ 0.4 μM, the MIC (isolate SI_K71, CARB, β/I, ESC, FQ, blaKPC) was ≤ 0.5 μg/mL and ≤ 0.4 μM and the MIC (isolate SI_K72, CARB, β/I, ESC, FQ, AG, COL, blaNDM) was > 32 μg/mL and > 24 μM. For the same substance, the MIC (isolate SI_K73, CARB, ESC, FQ, AG, blaCTX-M) was ≤ 0.5 μg/mL and ≤ 0.4 μM.
